Measurements: patent publication US20040023972A1, “Use of substituted imidazo[1,2-a]-pyridin-, -pyrimidin-and-pyrazin-3-yl-amine derivatives in the preparation of medicaments for inhibiting NOS” (Gruenenthal GmbH, priority 2000, published 2004)

Biological target: T1, NO synthase (Rattus norvegicus, UniProt P29476)
T1 construct: the supernatant was then removed by decantation and frozen in portions at −80° C; from tissue; host or cells: rat cerebellum, 20,000 g supernatant of homogenate
Test: HTS-NOS assay (NOS assay): conversion of radioactive arginine, cation-exchanger filter plate
Type: biochemical
Conditions: 10 μM
Protocol: This assay enables the percentage inhibition of NO synthase by an active ingredient to be determined by measuring the NOS activity under the action of the active ingredient. NO synthase is mixed together with radioactively labelled arginine and the active ingredient under suitable conditions. After terminating the NO-forming reaction at a given time, the amount of unconverted arginine is determined directly or indirectly. A comparison of that amount with the amount of arginine that remains in a mixture of NOS and arginine without the addition of active ingredient and under otherwise identical conditions gives the % inhibition of NO synthase by the tested active ingredient. This assay can be carried out as follows:
(a) incubation of NO synthase with labelled arginine as substrate in a reaction vessel,
(b) separation of the labelled arginine from the labelled citrulline optionally formed as a product of the enzymatic reaction, at a time at which the citrulline concentration is increasing,
(c) measurement of the amount of arginine remaining in each case.
Separation is carried out over a filter plate membrane.
This NOS assay is suitable especially for “high throughput screening” (HTS) on microtitre plates (MTP).
In this HTS-NOS assay, radioactive arginine is used as substrate. The assay volume can be chosen in the range from 25 μl to 250 μl, according to the type of microtitre plate (MTP). Depending on the source of the enzyme used, co-factors and co-enzymes are added. Incubation of the batches on this microtitre plate (assay MTP) according to step (a) is carried out at room temperature and is for 5 to 60 minutes according to the enzyme activity used (units). At the end of the incubation (step (a)), the plate is placed into a cell harvester which is equipped with a MTP having a cation-exchanger membrane as the filter base (filter MTP). All batches of the assay MTP are transferred to the filter MTP and filtered off with suction over a cation-exchanger filter plate, a paper filter charged with phosphate groups. The filter MTP is then washed with buffer or water. By means of this procedure, the arginine substrate that remains is bound to the cation exchanger, while the enzymatically formed radioactive citrulline is washed out quantitatively. After drying the filter MTP and adding scintillation liquid, the bound arginine can be counted using a scintillation counter. An uninhibited NOS reaction is reflected in low radioactivity. An inhibited enzyme reaction means that the radioactive arginine has not been converted. This means that a high level of radioactivity is found on the filter.
Rat cerebella were used as the starting tissue. The animals were anaesthetized and sacrificed, the brain tissue, the cerebellum, was removed by dissection, 1 ml of enzyme preparation buffer was added per rat cerebellum (4° C.), and disintegration was carried out using a Polytron homogeniser for 1 minute at 6000 rpm, followed by centrifugation for 15 minutes at 4° C. and 20,000 g; the supernatant was then removed by decantation and frozen in portions at −80° C. (the precipitate was discarded).
96-well MTP having a well capacity of <250 μl were used.
Pipetting sequence: see Table 1.
When the pipetting operation was complete, a cover was placed on the MTP (assay MTP), and incubation was at 25° C. (room temperature (RT)) for from 5 to 60 minutes, according to the amount and activity of the enzyme used.
The contents of the assay MTP were then transferred with the aid of a 96-well cell harvester to a 96-well cation exchanger MTP (filter MTP) and filtered off with suction. This was followed by washing once with […] of H2O (from a bath).
The plate was then dried for 1 hour at 60° C. in a drying cabinet. The underside of the filter MTP was then accurately sealed from beneath with a “back seal”. 35 μl of scintillation fluid per well were then added by means of a pipette. The upper side of the plate was also sealed with a “top seal”. […]

Row | Compound | HTS-NOS assay: % inhibition (10 μM) [%]
1 | Cc1cc(C)n2c(Nc3c(C)cccc3C)c(-c3ccccc3F)nc2c1 [Example 34] | 61
2 | C#[N+]CCCCCCNc1c(-c2ccco2)nc2cc(C)cc(C)n12 [Example 45, [6-(2-Furan-2-yl-5,7-dimethyl-imidazo[1,2-a]pyridin-3-ylamino)-hexyl]-methylidyne-ammonium] | 54
3 | [C-]#[N+]CCCCCCNc1c(-c2ccc(C)cc2)nc2cc(C)ccn12 [Example 50, Methylidyne-[6-(7-methyl-2-p-tolyl-imidazo[1,2-a]pyridin-3-ylamino)-hexyl]-ammonium] | 78
4 | CC(=O)OCc1ccc(-c2nc3cc(C)cc(C)n3c2NC2CCCCC2)o1 [Example 52, Acetic acid 5-(3-cyclohexylamino-5,7-dimethyl-imidazo[1,2-a]pyridin-2-yl)-furan-2-yl methyl ester] | 64
5 | CC(=O)OCc1ccc(-c2nc3cc(C)ccn3c2NC2CCCCC2)o1 [Example 58, Acetic acid 5-(3-cyclohexylamino-7-methyl-imidazo[1,2-a]pyridin-2-yl)-furan-2-yl methyl ester] | 64
6 | [C-]#[N+]CCCCCCNc1c(-c2cccnc2)nc2cc(C)cc(C)n12 [Example 59, [6-(5,7-Dimethyl-2-pyridin-3-yl-imidazo[1,2-a]pyridin-3-ylamino)-hexyl]-methylidyne-ammonium] | 57
7 | [C-]#[N+]CCCCCCNc1c(-c2ccccc2OC)nc2cc(C)cc(C)n12 [Example 61, {6-[2-(2-Methoxy-phenyl)-5,7-dimethyl-imidazo[1,2-a]pyridin-3-ylamino]-hexyl}-methylidyne-ammonium] | 73

Same assay, conditions: read-out: HTS-NOS assay: % inhibition (10 μM)

Row | Compound | inhibition at 10 µM [%]
8 | Cc1cc(C)n2c(Nc3c(C)cccc3C)c(-c3sccc3Br)nc2c1 [Example 42, [2-(3-Bromo-thiophen-2-yl)-5,7-dimethyl-imidazo[1,2-a]pyridin-3-yl]-(2,6-dimethyl-phenyl)-amine] | 55
9 | Cc1cc(C)n2c(NC(C)(C)CC(C)(C)C)c(C3CCCCC3)nc2c1 [Example 44, (2-Cyclohexyl-5,7-dimethyl-imidazo[1,2-a]-pyridin-3-yl)-(1,1,3,3-tetramethyl-butyl)-amine] | 71
10 | Cc1ccn2c(Nc3c(C)cccc3C)c(-c3cccc(Cl)c3Cl)nc2c1 [Example 47, [2-(2,3-Dichloro-phenyl)-7-methyl-imidazo[1,2-a]pyridin-3-yl]-(2,6-dimethyl-phenyl)-amine] | 69
11 | CCCCNc1c(-c2cccc(OC)c2OC)nc2cc(C)cc(C)n12 [Example 49, Butyl-[2-(2,3-dimethoxy-phenyl)-5,7-dimethyl-imidazo[1,2-a]pyridin-3-yl]-amine] | 67
12 | COc1ccccc1-c1nc2cc(C)cc(C)n2c1NC(C)(C)CC(C)(C)C [Example 53, [2-(2-Methoxy-phenyl)-5,7-dimethyl-imidazo[1,2-a]pyridin-3-yl]-(1,1,3,3-tetramethyl-butyl)-amine] | 61
13 | Cc1ccn2c(NC(C)(C)CC(C)(C)C)c(-c3cc4ccccc4o3)nc2c1 [Example 56, (2-Benzofuran-2-yl-7-methyl-imidazo[1,2-a]pyridin-3-yl)-(1,1,3,3-tetramethyl-butyl)-amine] | 60
14 | CCCCNc1c(-c2ccccc2OC)nc2cc(C)ccn12 [Example 60, Butyl-[2-(2-methoxy-phenyl)-7-methyl-imidazo[1,2-a]pyridin-3-yl]-amine] | 52
15 | Cc1cc(C)n2c(NC(C)(C)CC(C)(C)C)c(-c3ccc(CO)o3)nc2c1 [Example 62, {5-[5,7-Dimethyl-3-(1,1,3,3-tetramethyl-butylamino)-imidazo[1,2-a]pyridin-2-yl]-furan-2-yl}-methanol] | 55
16 | Cc1ccn2c(NC(C)(C)C)c(-c3ccc(CO)o3)nc2c1 [Example 64, [5-(3-Tert-butylamino-7-methyl-imidazo[1,2-a]pyridin-2-yl)-furan-2-yl]-methanol] | 52

Now from value to compound:

Row | inhibition at 10 µM [%] | Compound
17 | 55 | Cc1cc(C)n2c(NC3CCCCC3)c(C)nc2c1 [Example 35, Cyclohexyl-(2,5,7-trimethyl-imidazo[1,2-a]-pyridin-3-yl)-amine]
18 | 69 | Cc1cc(C)n2c(NC(C)(C)CC(C)(C)C)c(-c3ccc[nH]3)nc2c1 [Example 36, [5,7-Dimethyl-2-(1H-pyrrol-2-yl)-imidazo-[1,2-a]pyridin-3-yl]-(1,1,3,3-tetramethyl-butyl)-amine]
19 | 58 | CCCCNc1c(C2CCCCC2)nc2cc(C)cc(C)n12 [Example 37, Butyl-(2-cyclohexyl-5,7-dimethyl-imidazo[1,2-a]pyridin-3-yl)-amine]
20 | 60 | Cc1cc(C)n2c(NC(C)(C)CC(C)(C)C)c(-c3ccccc3C)nc2c1 [Example 38, (5,7-Dimethyl-2-o-tolyl-imidazo[1,2-a]-pyridin-3-yl)-(1,1,3,3-tetramethyl-butyl)-amine]
21 | 58 | COc1cccc(-c2nc3cc(C)ccn3c2Nc2c(C)cccc2C)c1OC [Example 39, [2-(2,3-Dimethoxy-phenyl)-7-methyl-imidazo[1,2-a]pyridin-3-yl]-(2,6-dimethyl-phenyl)-amine]
22 | 61 | Cc1ccn2c(NC(C)(C)CC(C)(C)C)c(C)nc2c1 [Example 40, (2,7-Dimethyl-imidazo[1,2-a]pyridin-3-yl)-(1,1,3,3-tetramethyl-butyl)-amine]
23 | 57 | Cc1ccn2c(NC(C)(C)CC(C)(C)C)c(-c3ccc(C4OCCO4)o3)nc2c1 [Example 41, [2-(5-[1,3]Dioxolan-2-yl-furan-2-yl)-7-methyl-imidazo[1,2-a]pyridin-3-yl]-(1,1,3,3-tetramethyl-butyl)-amine]
24 | 71 | Cc1ccn2c(Nc3c(C)cccc3C)c(-c3ccccc3F)nc2c1 [Example 43, (2,6-Dimethyl-phenyl)-[2-(2-fluoro-phenyl)-7-methyl-imidazo[1,2-a]pyridin-3-yl]-amine]
25 | 59 | Cc1ccn2c(NC(C)(C)CC(C)(C)C)c(-c3ccccc3C)nc2c1 [Example 46, (7-Methyl-2-o-tolyl-imidazo[1,2-a]pyridin-3-yl)-(1,1,3,3-tetramethyl-butyl)-amine]
26 | 68 | COc1cccc(-c2nc3cc(C)cc(C)n3c2Nc2c(C)cccc2C)c1OC [Example 48, [2-(2,3-Dimethoxy-phenyl)-5,7-dimethyl-imidazo[1,2-a]pyridin-3-yl]-(2,6-dimethyl-phenyl)-amine]
27 | 59 | Cc1cc(C)n2c(NC(C)(C)C)c(-c3ccc([N+](=O)[O-])o3)nc2c1 [Example 51, Tert-butyl-[5,7-dimethyl-2-(5-nitro-furan-2-yl)-imidazo[1,2-a]pyridin-3-yl]-amine]
28 | 64 | COc1ccc(-c2nc3cc(C)ccn3c2Nc2c(C)cccc2C)cc1OC [Example 54, [2-(3,4-Dimethoxy-phenyl)-7-methyl-imidazo[1,2-a]pyridin-3-yl]-(2,6-dimethyl-phenyl)-amine]
29 | 63 | CCCCNc1c(-c2cccc(O)c2)nc2cc(C)ccn12 [Example 55, 3-(3-Butylamino-7-methyl-imidazo[1,2-a]-pyridin-2-yl)-phenol]
30 | 57 | Cc1cc(C)n2c(Nc3c(C)cccc3C)c(-c3cc4ccccc4o3)nc2c1 [Example 57, (2-Benzofuran-2-yl-5,7-dimethyl-imidazo[1,2-a]pyridin-3-yl)-(2,6-dimethyl-phenyl)-amine]
31 | 52 | Cc1ccn2c(NC(C)(C)CC(C)(C)C)c(-c3cccc4ccccc34)nc2c1 [Example 63, (7-Methyl-2-naphthalen-1-yl-imidazo[1,2-a]-pyridin-3-yl)-(1,1,3,3-tetramethyl-butyl)-amine]
